Data published in patent publication US20240189307A1, “METHODS OF STABILIZING THE NEURONAL PROTEOME AGAINST COLLAPSE AND PROTECTING VASCULAR CELLS” (ALBERT EINSTEIN COLLEGE OF MEDICINE, priority 2021, published 2024).

Tested on: NIH3T3 cells
Assay: Macroautophagic flux (LC3-II flux with/without lysosomal protease inhibitors)
Type: cell-based, mouse
Settings: 20 μM, 16 h
Procedure: FIG. 10. Characterization of the brain permeable chemical activator of CMA and effect in a mouse model of Frontotemporal dementia-related proteotoxicity. (A) Chemical structure of AR7 and CA77.1. (B) Quantification of the effect of adding increasing concentrations of AR7 and CA77.1 to NIH3T3 cells stably expressing the KFERQ-PS-Dendra reporter. CMA activity was quantified after 16 h treatment as the average of fluorescent puncta per cell. (n>800 cells per condition). (C) Autophagic flux in NIH3T3 cells incubated at 37° C. for 16 h with 20 µM AR7 or CA77.1 or without additions (none). Where indicated lysosomal protease inhibitors (PI) were added to the cells 6 h before lysis. Left: representative immunoblot. […] Right: quantification of LC3-II flux as the difference in LC3-II levels in cells treated with PI relative to untreated. […] (D) Quantification of the effect of adding increasing concentrations of AR7 and CA77.1 to NIH3T3 cells stably expressing the KFERQ-PS-Dendra reporter. CMA activity was quantified after 12 h or 24 h treatment as the average of fluorescent puncta per cell. […] Representative immunoblot of 4-5 mice per genotype and treatment (L) and densitometric quantification of AT8 as monomer [Kruskal-Wallis statistic=20.48, p<0.0001] […] (O, P) Quantification of the number of Iba1-positive microglial cells per mm^2 in the hippocampus [Kruskal-Wallis statistic=10.55, p=0.0051] […]

## CC(=O)Nc1ccc(-c2cnc3cc(Cl)ccc3n2)cc1 [CA77.1]
  effect on macroautophagy (LC3-II flux): without affecting macroautophagy
